Legend:
[1] = approximate; cited from earlier work
[2] = in the presence of light; cited from earlier work
[3] = format: in vitro ADME, Human
Procedure: Skin permeation rates of various ketorolac/enhancer formulations were determined using flow through diffusion cells with an active area of 1 cm^2 and a receiving column of 3 ml. The receptor fluid, isotonic saline, was pumped into and through the cells by a peristaltic pump. Samples were collected in glass vials arranged in an automatic fraction collector. Human skin was placed on the lower half of the diffusion cell with the stratum corneum facing the donor compartment. The test solution or transdermal device was placed on the stratum corneum and the amount of drug permeated across the skin (µg/cm^2·hr) was calculated from the cumulative release.

[4] = water and methanol; cited from earlier work

O=C(c1ccccc1)c1ccc2n1CCC2C(=O)O (racemic) [ketorolac]
half-life [1]: ~4 h
stability to light [2]: degrades in the presence of light

O=C(c1ccccc1)c1ccc2n1CC[C@@H]2C(=O)O [(-) ketorolac]
permeability to human skin [3]: as permeable to human skin as the racemate

O=C(c1ccccc1)c1ccc2n1CCC2C(=O)O (stereo not shown) [Ketorolac tromethamine]
solubility [4]: freely soluble in water and methanol
